This is an account of results in patent US20140336109A1, “MODULATION OF GHRELIN LEVELS AND GHRELIN/UNACYLATED GHRELIN RATIO USING UNACYLATED GHRELIN” (Alize Pharma SAS, priority 2011, published 2014).

For data set [1] the following is noted: U.S. Pat. Nos. 8,222,217 and 8,318,664; cited from earlier work.
For the next data set, the system named is T2DM subjects. Nature of the data set: Side effects and laboratory safety parameters during UAG infusion. Format: in vivo, human. The note with it: during infusions with UAG 3 and 10 μg/kg/hr, 15 hours. As to the method:
A continuous overnight (15 hours) infusion of two doses of UAG (3 μg UAG/kg/hr and 10 μg UAG/kg/hr) versus placebo in a cross-over model on the AG concentrations was performed in eight overweight subjects with type 2 diabetes. FIG. 1 depicts a schematic representation of the study protocol. Glucose and insulin responses to a standard breakfast meal (SBM) in the subjects and reasonable metabolic control were assessed.
Study design—Single-center, investigator initiated, double blind and placebo controlled randomized study. During the first visit medical history, medication use and vital signs of subjects were checked. Blood samples were also taken for chemistry and hematology analysis. […]
Standard breakfast meal (SBM) consisted of: • 3 slices wheat bread; p1 3 portions of margarine; • 2 slices of cheese (48% fat); • 1 portion of jam; • 1 cup of whole milk; and • 1 boiled egg; for a total of 714 kcal (17% proteins; 46% fat; and 37% carbohydrates). […] At each of the 3 visits, the following safety parameters were assessed: hemoglobin, hematocrit, platelet count, WBC count, RBC count, and differential and were determined using Sysmex XE 2100, Firma Sysmex, Ecustraat 11, 4879 NP Etten-Leur. […] Serum glucose levels (using the in-house glucokinase assay) were also assessed every 30 minutes and starting before, and continuing for 4 hours after, the SBM. […]

For another data set, the system named is Sprague-Dawley rats. As to the kind of experiment: AG-induced food intake in rats. The class given is in vivo. Particulars: rat; i.p. 42 μg/kg + AG 13 μg/kg; 30 min, 1 h, 2 h. As to the method: With respect to the experimental data presented in FIG. 8, Sprague-Dawley rats of 7 weeks of age, weighing between 275 g and 300 g, were fed a pellet diet ad libitum and were singly housed in plastic cage. The experiment was performed at 2.5 h after the onset of the light cycle in freely fed rats. The rates were i.p. injected simultaneously with vehicle plus vehicle, vehicle+AG (13 μg/kg) or cyclised UAG (6-13) (SEQ ID NO: 25) (42 μg/kg)+AG (13 μg/kg). Immediately after the completion of the i.p. injection in rats, the night-ad-libitum food was removed and replaced by 2 pellets for each animal, previously weighed, placed into the top of the cage. Food intake was calculated as the difference between the food weight before and after the feeding period at each time interval (30 min, 1 h, and 2 h). Cumulative food intake was calculated by summating the values of the different time periods.

Where no end group is shown, it is not given here.

Regarding EHQRVQ [UAG (8-13)], in data set [1], the “activity on glucose, insulin and lipid metabolisms relative to UAG full length” value is recorded as “retain the activity of UAG full length”.
As to “Glu-His-Gln-Arg (EHQR; listed as Homo sapiens) [UAG (8-11)]”, in data set [1], the “activity on glucose, insulin and lipid metabolisms relative to UAG full length” value is listed as “retain the activity of UAG full length”.
Regarding `CC(C)C[C@H](NC(=O)[C@H](CCCCN)NC(=O)[C@H](C)NC(=O)[C@@H]1CCCN1C(=O)[C@@H]1CCCN1C(=O)[C@H](CCCCN)NC(=O)[C@H](CCCCN)NC(=O)[C@H](CO)NC(=O)[C@H](CCC(=O)O)NC(=O)[C@H](CCCCN)NC(=O)[C@H](CCCNC(=N)N)NC(=O)[C@H](CCC(N)=O)NC(=O)[C@H](CCC(N)=O)NC(=O)[C@@H](NC(=O)[C@H](CCCNC(=N)N)NC(=O)[C@H](CCC(N)=O)NC(=O)[C@H](Cc1cnc[nH]1)NC(=O)[C@H](CCC(=O)O)NC(=O)[C@@H]1CCCN1C(=O)[C@H](CO)NC(=O)[C@H](CC(C)C)NC(=O)[C@H](Cc1ccccc1)NC(=O)[C@H](CO)NC(=O)[C@H](CO)NC(=O)CN)C(C)C)C(=O)N[C@@H](CCC(N)=O)C(=O)N1CCC[C@H]1C(=O)N[C@@H](CCCNC(=N)N)C(=O)O` [UAG], in the data set with T2DM subjects, the “laboratory evaluations (chemistry or parameters)” value was “no significant changes” and the “side effects reported by subjects” value is reported as “did not report more side effects than placebo”.
For “His-Gln-Arg-Val (HQRV; listed as Homo sapiens) [UAG (9-12)]”, the “activity on glucose, insulin and lipid metabolisms relative to UAG full length” value in data set [1] is recorded as “retain the activity of UAG full length”.
For the compound SPEHQRVQ [UAG (6-13)], the “activity on glucose, insulin and lipid metabolisms relative to UAG full length” value in data set [1] was “retain the activity of UAG full length”.
“His-Gln-Arg (HQR; listed as Homo sapiens) [UAG (9-11)]”: the “activity on glucose, insulin and lipid metabolisms relative to UAG full length” value in data set [1] is given as “retain the activity of UAG full length”.
As to “Ser-Pro-Glu-His-Gln-Arg-Val-Gln (cycl) (SPEHQRVQ; also: cyclic, linkage type not given here; listed as Homo sapiens) [cyclic UAG (6-13)]”, the “orexigenic effects (food intake) induced by AG” value with Sprague-Dawley rats was “able to counteract the orexigenic effects induced by AG”.
Turning to “Glu-His-Gln-Arg-Val (EHQRV; listed as Homo sapiens) [UAG (8-12)]”, in data set [1], the “activity on glucose, insulin and lipid metabolisms relative to UAG full length” value is “retain the activity of UAG full length”.
